Data set [1] deals with cIAP2−/− mice and littermate controls. The following applies: for LD100: i.p. The protocol:
Mice were injected IP with a range of indicated LPS doses (n=15).
Schoemaker et al. proposed an important role of cIAP2 in LPS-induced death of liver cells sensitized to endotoxic shock by D-galactosamine (DGLN) (22). […] Thus to investigate the role of cIAP2 in an innate immune response, the cIAP2^−/− mice were treated with LPS.
Adult 4-6 week old mice (n=6 to 10) were injected intraperitoneally (i.p.) with a range of LPS doses (10 to 200 mg LPSD/kg) from E. coli (Sigma) in a total volume of 0.2 ml nonpyrogenic saline.

The test system of data set [2] is cIAP2−/− and control mice. The text has this: In addition, we exposed cIAP2^−/− mice to a second mode of LPS-induced toxicity, where treatment with D-galactosamine (DGLBN) sensitized mice to endotoxic shock.
Another data set deals with peritoneal macrophages. In words: TNF-α and IL-1β production of cultured peritoneal macrophages exposed to LPS (ELISA). The format is cell-based, mouse. The following applies: cIAP2−/− peritoneal macrophages; LPS 0.1 to 1000 ng/ml; 10 and 24 h. The protocol: Spleen- and peritoneal-derived macrophage cell count numbers are shown (A) for cIAP2^−/−, cIAP2^+/− and cIAP2^+/+ mice (n=10). Both cIAP2^−/− and littermate control-derived macrophages stained for the LPS binding surface receptor CD14 (B). The proliferation of B cells for cIAP2^−/− mice and littermate controls of cIAP2^+/+ after culturing with the indicated range of LPS doses (n=6) (C). Cultured macrophages from cIAP2^−/− or littermate control cIAP2^+/+ mice were exposed to LPS for 10 h and subsequently IL-1β (D) or TNF-α (E) levels were measured by ELISA (n=6). Additionally, macrophages were exposed to the indicated range of LPS doses for 24 h and IL-1β (F) or TNF-α (G) levels were determined (n=6). Results are mean±s.d. in triplicate per mouse, P<0.01
This dysfunction may be correlated to a reduced initial number of macrophages, to a block in the LPS-induced signaling pathway, or to an increased apoptotic susceptibility of the cIAP2^−/− macrophages. […]
T and B cells were isolated from mouse lymphoid tissue (spleen) by first mincing and then pressing the tissue through a 10 μm metal mesh and were then counted by using trypan blue exclusion method. […] The resulting cells were then counted by using typan blue exclusion and Diff Quik™ Stain Kit (IMEB INC, San Marcos, Calif.). […] Concentrations of TNF-α and IL-1β, in primary tissue culture supernatants were determined by ELISA kit (R&D Systems).

For data set [3], the system named is xiap, ciap1 and ciap2 mRNA. In words: iap mRNA levels of LPS-treated peritoneal macrophages (quantitative RT-PCR). The format is cell-based, mouse. As to the method:
The iap mRNA levels of LPS-treated peritoneal macrophages derived from wild type C57Bl/6 mice relative to untreated controls were assayed. (A) xiap, ciap1, and ciap2 message levels of macrophages exposed to a range of LPS doses relative to untreated controls. (B) ciap2 mRNA message of macrophages exposed to LPS was assayed over 24 h. Results are mean±s.d. (n=5, average of triplicate wells per mouse, P<0.05).
LPS-induced activation of macrophages causes the upregulation of a multitude of genes, including the production/release of inflammatory mediators, the upregulation of cell surface receptors and of cell survival proteins. […] Therefore, the iap mRNA levels of LPS-treated macrophages, derived from the peritoneal cavity, were assayed relative to untreated controls. Peritoneal macrophages were cultured at 10^5 cell/well (96 well, flat bottom plate) and exposed to varying concentrations of LPS for 18 hours. […] In contrast, ciap2 levels increased dramatically, up to 30 fold above untreated controls (P<0.01 for all LPS doses) (FIG. 2A). The innate immune system provides protection within the first minutes to hours after a pathogenic challenge.
mRNA was extracted from mouse embryonic fibroblasts or peritoneal macrophages using Qiagen Rneasy 96 wells extraction kit (Qiagen, Mississauga, ON, Canada) and run on a TaqMan® instrument (Perkin-Elmer, Foster City, Calif.) using specific DNA probes for murine xiap, ciap1 and 2 and the TaqMan® EZ RT-PCR kit (Qiagen, Mississauga, ON, Canada).

Setting [4] is: wild type peritoneal macrophages, LPS 0.1 ng/ml to 10 mg/ml, 18 hours.

Where two headings read alike, the source gives them in different places.

On to lipopolysaccharide [LPS], for which the Survival entry was “did not survive past the first day” in data set [1] (all littermate controls, LPS dose of 60 mg/kg and above); 6/6 in data set [2] (cIAP2+/+ mice, LPS 0.5 μg/kg with D-galactosamine 0.6 g/kg i.p.); 6/6 in data set [2] (cIAP2+/+ mice, LPS 1 μg/kg with D-galactosamine 0.6 g/kg i.p.); 2/6 in data set [2] (cIAP2+/+ mice, LPS 5 μg/kg with D-galactosamine 0.6 g/kg i.p.); 0/6 in data set [2] (cIAP2+/+ mice, LPS 10 μg/kg with D-galactosamine 0.6 g/kg i.p.); 0/6 in data set [2] (cIAP2+/+ mice, LPS 20 μg/kg with D-galactosamine 0.6 g/kg i.p.). The Survival in data set [2] (cIAP2−/− mice, LPS 0.5 μg/kg with D-galactosamine 0.6 g/kg i.p.) was 6/6; in data set [2] (cIAP2−/− mice, LPS 1 μg/kg with D-galactosamine 0.6 g/kg i.p.), 6/6; in data set [2] (cIAP2−/− mice, LPS 5 μg/kg with D-galactosamine 0.6 g/kg i.p.) it was 2/6; in data set [2] (cIAP2−/− mice, LPS 10 μg/kg with D-galactosamine 0.6 g/kg i.p.), 0/6; in data set [2] (cIAP2−/− mice, LPS 20 μg/kg with D-galactosamine 0.6 g/kg i.p.) it was 0/6. The same substance yielded a Survival time in data set [1] (cIAP2−/− mice, LPS dose of 200 mg LPS/kg) of 2 to 7 days. For the same substance, the results for the LD100 in data set [1] (cIAP2−/− mice) and in data set [1] (control littermates) were 100 mg LPS/kg and 35 mg LPS/kg, respectively. Moreover, in data set [1] (control littermates, 40 mg LPS/kg), the “Time within which all died” value is no more than 24 h. In addition, in data set [1] (i.p. LPS), the “LD100 of cIAP2−/− mice compared to that of control littermates” value is on record as “approximately 3 ×”. Further, the “Time to demise of the mice” value in data set [2] (LPS with DGLN, cIAP2−/− mice and control littermates) was less than 3 h. Besides, the “TNF-α and IL-1β levels relative to littermate controls” value with peritoneal macrophages is “generated comparable levels of TNF-α and IL-1β”. The “ciap2 mRNA upregulation above untreated controls” value in data set [3] (100 ng/1 ml LPS, within 1 hour, maintained for 24 hours) is on record as greater than 20 fold. In addition, the “increase of ciap2 message above untreated controls” value in data set [3] (peritoneal-derived macrophages, in less than one hour) was 2o. Also, the “Xiap and ciap1 message levels” value in data set [3] (setting [4]) is given as “remained relatively unchanged”. For the same substance, the “ciap2 mRNA level increase above untreated controls” value in data set [3] (setting [4]) is given as “up to 30 fold”.

The values are drawn from patent publication US20060123501A1, “Method for treating inflammatory disorders” (priority 2004, published 2006).
